# Test results published in patent US9951025B2, “Halogenopyrazoles as inhibitors of thrombin” (VERSEON CORPORATION, priority 2013, dated 2018).
# Biological target: T1, Human thrombin (Homo sapiens, UniProt P00734)
# T1 construct: purchased Haematologic Technologies Inc
# Experiment: thrombin protease inhibition assay, chromogenic substrate S-2238
# Assay type: biochemical
# Conditions: 3 nM human thrombin, 125 μM S-2238, 10 min pre-incubation, RT
# Experimental: Compounds described herein can be assayed, by a variety of methods known in the art and described herein, for inhibition of biological activity, e.g., protease activity, of a variety of proteins, e.g., thrombin.
# The thrombin activity reported herein (e.g., Table A) was obtained as follows. […] Thrombin was assayed in buffer containing 0.05 M Tris (pH 7.4), 0.015 M NaCl and 0.01% PEG-8000. The final concentration of enzyme used was 3 nM thrombin. […] All assays were performed in 96-well microtiter plates at room temperature (RT). […] Inhibitor IC50 values were determined by adding test compound as ten point, three-fold serial dilutions in buffer solution, as known in the art. The plate was read at 10 minutes after substrate addition. The IC50 was calculated by plotting the percent (%) inhibition against compound concentration and fitting the data to a constrained four parameter sigmoidal curve, as known in the art.
row,Structure (SMILES),IC50 [µM]
1,"CN(C)c1cccc2c(S(=O)(=O)Oc3ccc(C(=O)n4nc(-c5ccccc5)c(F)c4NCc4ccc(Cl)s4)cc3)cccc12 [Compound 27, 4-(5-[(5-chlorothiophen-2-yl)methyl]amino-4-fluoro-3-phenyl-1H-pyrazole-1-carbonyl)phenyl 5-(dimethylamino)naphthalene-1-sulfonate]",> 1
2,"CC1(C(=O)n2nc(-c3ccccc3)c(F)c2NCc2ccc(Cl)s2)CCOCC1 [Compound 48, N-[(5-chlorothiophen-2-yl)methyl]-4-fluoro-1-(4-methyloxane-4-carbonyl)-3-phenyl-1H-pyrazol-5-amine]",< 0.1
3,"CC(C)(C)C(=O)n1nc(-c2ccccc2)c(F)c1NCc1ccccc1 [Compound 23, 1-[5-(benzylamino)-4-fluoro-3-phenyl-1H-pyrazol-1-yl]-2,2-dimethylpropan-1-one]",< 0.1
4,"O=C(c1ccccc1)n1nc(C2CCOCC2)c(F)c1NCc1ccc(Cl)s1 [Compound 24, 1-benzoyl-N-[(5-chlorothiophen-2-yl)methyl]-4-fluoro-3-(oxan-4-yl)-1H-pyrazol-5-amine]",< 0.1
5,"CN(C)c1cccc2c(S(=O)(=O)Nc3ccc(C(=O)n4nc(C5CCNCC5)c(F)c4NCc4ccc(Cl)s4)cc3)cccc12 [Compound 57, N-[4-(5-[(5-chlorothiophen-2-yl)methyl]amino-4-fluoro-3-(piperidin-4-yl)-1H-pyrazole-1-carbonyl)phenyl]-5-(dimethylamino)naphthalene-1-sulfonamide]",< 0.1
6,"COc1ccc(C(=O)n2nc(C3CCOCC3)c(F)c2NCc2ccc(Cl)s2)c(OC)c1 [Compound 36, N-[(5-chlorothiophen-2-yl)methyl]-1-(2,4-dimethoxybenzoyl)-4-fluoro-3-(oxan-4-yl)-1H-pyrazol-5-amine]",< 0.1

# Other lines, results leading:
row,IC50 [µM],Structure (SMILES)
1,< 0.1,"COc1ccc(C(=O)n2nc(-c3ccccc3)c(F)c2NCc2ccc(Cl)s2)c(OC)c1 [Compound 38, N-[(5-chlorothiophen-2-yl)methyl]-1-(2,4-dimethoxybenzoyl)-4-fluoro-3-phenyl-1H-pyrazol-5-amine]"
2,> 1,"COc1ccccc1C(=O)n1nc(-c2ccc3c(c2)CCCC3O)c(F)c1NCc1ccc(Cl)s1 (centres unmarked) [Compound 30, 6-(5-[(5-chlorothiophen-2-yl)methyl]amino-4-fluoro-1-(2-methoxybenzoyl)-1H-pyrazol-3-yl)-1,2,3,4-tetrahydronaphthalen-1-ol]"
3,< 0.1,"CC(C)(O)C(=O)n1nc(-c2ccccc2)c(F)c1NCc1ccc(Cl)s1 [Compound 11, 1-(5-[(5-chlorothiophen-2-yl)methyl]amino-4-fluoro-3-phenyl-1H-pyrazol-1-yl)-2-hydroxy-2-methylpropan-1-one]"
4,< 0.1,"O=C(n1nc(-c2ccccc2)c(F)c1NCc1ccc(Cl)s1)C1(CO)CC1 [Compound 62, [1-(5-[(5-chlorothiophen-2-yl)methyl]amino-4-fluoro-3-phenyl-1H-pyrazole-1-carbonyl)cyclopropyl]methanol]"
5,< 0.1,"COc1ccc(C(=O)n2nc(C3CCNCC3)c(F)c2NCc2ccc(Cl)s2)c(OC)c1 [Compound 37, N-[(5-chlorothiophen-2-yl)methyl]-1-(2,4-dimethoxybenzoyl)-4-fluoro-3-(piperidin-4-yl)-1H-pyrazol-5-amine]"
6,< 0.1,"O=C(c1ccsc1)n1nc(C2CCOCC2)c(F)c1NCc1ccc(Cl)s1 [Compound 54, N-[(5-chlorothiophen-2-yl)methyl]-4-fluoro-3-(oxan-4-yl)-1-(thiophene-3-carbonyl)-1H-pyrazol-5-amine]"
7,> 1,"COc1ccccc1C(=O)n1nc(NCc2ccc(Cl)s2)c(F)c1C1CCOCC1 [Compound 45, N-[(5-chlorothiophen-2-yl)methyl]-4-fluoro-1-(2-methoxybenzoyl)-5-(oxan-4-yl)-1H-pyrazol-3-amine]"
8,< 0.1,"O=C(c1cccc2c1OCCO2)n1nc(C2CCOCC2)c(F)c1NCc1ccc(Cl)s1 [Compound 32, N-[(5-chlorothiophen-2-yl)methyl]-1-(2,3-dihydro-1,4-benzodioxine-5-carbonyl)-4-fluoro-3-(oxan-4-yl)-1H-pyrazol-5-amine]"
